Patent US9096605B2, “Pyrazolopyrimidine derivatives as PI3 kinase inhibitors” (GlaxoSmithKline LLC, priority 2011, dated 2015)
Where a name gives a salt, the structure may show the parent alone.

Assays:
[1] = test system: pAKT(Ser473) in MDA-MB-468 cells; assay: pAKT(Ser473) assay in MDA-MB-468 cells; assay type: cell-based; conditions: Homo sapiens, 0.5 h, compound treatment 30 minutes, MSD ELISA phospho AKT(Ser473), given as ranges, read-out: Cell Activity—pAKT IC50 in MDA-MB-468
Description: pAKT(Ser473) Assay in MDA-MB-468 Cells
MDA-MB-468 cells were plated in 384-well flat clear bottom tissue culture plates (Corning #3701) at a density of 5000 cells per 0.057 cm2 in 48 ul of RPMI 1640 media supplemented with 10% fetal bovine serum (FBS). Cells were seeded with a Wellmate liquid handler (Matrix). Columns 1 through 23 were plated with cells and column 24 contained media alone. Cells were incubated at 37° C. with 5% CO2 for approximately 16-20 hours. Duplicate compound plates were prepared in 384-well polypropylene V-Bottom plates (Greiner #781280).
Compound titrations were made across the columns (A1-A20). 20 ul of compound was added to the first column and diluted into a 20 point curve with dimethylsulfoxide (DMSO, Thermo #TS2064) using a 2-fold dilution factor with a liquid handling robot (Hamilton). Columns 22 through 24 contained DMSO alone. Titrations were diluted 682-fold for compound treatment with 4 ul of compound added to 105 ul of RPMI media. Two ul of the diluted compound was added to the cell plates containing 48 ul of media using a multimek robot (Beckman Coulter). Final DMSO concentrations were 0.15%. Cells were treated with compound for 30 minutes at 37° C. with 5% CO2.
Following incubation, media was aspirated from dosed cell plates using an ELx405 plate washer (Bio-Tek) and 25 ul of 4° C. Meso Scale Discovery (MSD) lysis buffer with the addition of protease and phosphatase inhibitors (supplied in MSD kit #N31CB-1) was added to each well using a multidrop combi (Thermo). Precoated 4-spot per well MSD ELISA plates coated with total and phospho AKT(Ser473) antibody and BSA (supplied in kit) were blocked for 1 hour at room temperature with 35 ul per well of 1× MSD wash buffer+3% BSA (supplied in kit).
Blocked plates were washed 4 times with 100 ul per well of 1× Tris wash buffer (supplied in MSD kit) using an Elx405 plate washer (Bio-Tek). To each well, 20 ul of cell lysate was added using a multimek robot (Beckman Coulter) and the plate incubated at 4° C. overnight (˜12-24 hours). Following incubation, the ELISA plates were washed 4 times (100 ul/well) with 1× Tris wash buffer. Twenty microliters per well of 1× detection antibody (supplied in MSD kit) was added using a multidrop combi (Thermo), followed by a 2 hour incubation at room temperature. Detection antibody was aspirated and the plates washed 4 times (100 ul/well) with 1× Tris wash buffer. Read Buffer (supplied in MSD kit) was added at 1× (35 ul/well) at room temperature using a multidrop (Thermo). Relative luminescence units (RLU) were determined using a SECTOR™ Imager 6000 with MSD Workbench Software.
Concentration Response Curves for pAKT(Ser473):
For analysis of the pAKT(Ser473) concentration response curves, the data was normalized using Phospho AKT values divided by the sum of corresponding Total AKT and Phospho AKT values. The normalized values are plotted as the percent of the DMSO-treated control values on the corresponding plate. To determine IC50 values, the data is fit to a 4 parameter nonlinear sigmoidal dose response (variable slope) using GraphPad Prism version 4 for Windows, (GraphPad Software, San Diego Calif. USA). Criteria for curve fitting and IC50 determination include that the IC50 values from duplicate runs must be within 2 to 3-fold of each other, the Y min must be less than or equal to 30% of the DMSO-treated control and the Y max must range between 80-120%. Any data point equal to or greater than 40% of the curve was not utilized.

PI3K-beta = molecular target: T1, PI3K-beta (Homo sapiens, UniProt P42338); assay: HTRF in vitro profiling assay for PI3K inhibition (beta isoform); assay type: biochemical; conditions: PI3K-beta enzyme pIC50 range, 200 pM enzyme, 100 uM ATP, 10 uM PIP2, 150 mM NaCl, corrected pIC50, read-out: PI3K-b Enz Activity
T1 construct: made in house
Excerpt: HTRF In Vitro Profiling Assays for PI3K Inhibition
The PI3-Kinase profiling assays were developed to measure the compound-dependent inhibition of the alpha, beta, delta, and gamma isoforms of PI3K in an in vitro catalytic assay. This assay was developed and optimized from a kit produced by Upstate (Millipore catalog #33-017). Briefly, this procedure utilizes a pre-formed HTRF (Homogeneous Time-Resolved Fluorescence energy transfer) complex between four binding partners: 1) biotinylated PIP3, 2) GST tagged pleckstrin homology (PH) domain, 3) Europium labeled anti-GST monoclonal antibody, and 4) Streptavidin-Allophycocyanin (APC). The native PIP3 produced by PI 3-Kinase activity displaces biotin-PIP3 from the PH domain, resulting in the dissociation of the HTRF complex and a decrease in the fluorescence signal. The format of this assay is the same for all 4 isoforms of PI3K; the differences lie in the concentration of enzyme used to achieve the most robust signal. The alpha and delta assays are run at 400 pM enzyme; the beta assay is at 200 pM enzyme and the gamma assay is run at 1 nM enzyme. In addition, the alpha, beta and delta assays are run with 150 mM NaCl while the gamma assay is run in the absence of NaCl. The ATP concentration is 100 uM in the alpha, beta, and delta assays and 15 uM ATP in the gamma assay. All reactions are run at 10 uM PIP2
Compounds are serially diluted (3-fold in 100% DMSO) across a 384-well polypropylene mother plate from column 1 to column 12 and column 13 to column 24, to yield 11 concentrations for each test compound. Columns 6 and 18 contain only DMSO. Once titrations are made, […] is transferred to a 384-well low-volume assay plate (Greiner 784076). This assay plate contains three pharmacological controls (known PI3K inhibitors) and 3 assay controls: (1) Enzyme without inhibitor; (2) Buffer minus enzyme, and (3) Buffer minus enzyme plus native PIP3. DMSO is stamped into all wells of columns 6 and 18. PIP3 is added at 40 μM in 1× Reaction buffer (1 μL of 200 μM PIP3) to alternating rows of column 18 (wells 18 B, D, F, H, J, L, N, P). The no-enzyme control reactions are run in wells 18 A, C, E, G, I, K, M, O (0.1 μL of 100% DMSO).
The PI3-Kinase profiling assay was optimized using the HTRF kit provided by Upstate (Millipore). The assay kit contains seven reagents: 1) 4× Reaction Buffer; 2) native PIP2 (substrate); 3) Stop A (EDTA); 4) Stop B (Biotin-PIP3); 5) Detection Mix A (Streptavidin-APC); 6) Detection Mix B (Eu-labeled Anti-GST plus GST-tagged PH-domain); 7) Detection Mix C (KF). In addition, the following items were obtained or purchased: PI3Kinase (prepared by GSK BR&AD), dithiothreitol (Sigma, D-5545), Adenosine-5′-triphosphate (ATP, Teknova cat. # A0220), native PIP3 (1,2-dioctanoyl-sn-glycero-3-[phosphoinositil-3,4,5-triphosphate]tetraammonium salt (Avanti polar lipids, 850186P), DMSO (Sigma, 472301).
PI3Kinase Reaction Buffer is prepared by diluting the stock 1:4 with de-ionized water. Freshly prepared DTT is added at a final concentration of 5 mM on the day of use. Enzyme addition and compound pre-incubation are initiated by the addition of 2.5 μL of PI3K (at twice its final concentration) in 1× reaction buffer to all wells using a Multidrop Combi. Plates are incubated at room temperature for 15 minutes. Reactions are initiated by addition of 2.5 μL of 2× substrate solution (PIP2 and ATP in 1× reaction buffer) using a Multidrop Combi. Plates are incubated at room temperature for one hour. Reactions are quenched by the addition of 2.5 μL of stop solution (Stop A and Stop B pre-mixed at a ratio of 5:1, respectively) to all wells using the Multidrop Combi. […]

T1 sequence (P42338 whole entry, canonical isoform): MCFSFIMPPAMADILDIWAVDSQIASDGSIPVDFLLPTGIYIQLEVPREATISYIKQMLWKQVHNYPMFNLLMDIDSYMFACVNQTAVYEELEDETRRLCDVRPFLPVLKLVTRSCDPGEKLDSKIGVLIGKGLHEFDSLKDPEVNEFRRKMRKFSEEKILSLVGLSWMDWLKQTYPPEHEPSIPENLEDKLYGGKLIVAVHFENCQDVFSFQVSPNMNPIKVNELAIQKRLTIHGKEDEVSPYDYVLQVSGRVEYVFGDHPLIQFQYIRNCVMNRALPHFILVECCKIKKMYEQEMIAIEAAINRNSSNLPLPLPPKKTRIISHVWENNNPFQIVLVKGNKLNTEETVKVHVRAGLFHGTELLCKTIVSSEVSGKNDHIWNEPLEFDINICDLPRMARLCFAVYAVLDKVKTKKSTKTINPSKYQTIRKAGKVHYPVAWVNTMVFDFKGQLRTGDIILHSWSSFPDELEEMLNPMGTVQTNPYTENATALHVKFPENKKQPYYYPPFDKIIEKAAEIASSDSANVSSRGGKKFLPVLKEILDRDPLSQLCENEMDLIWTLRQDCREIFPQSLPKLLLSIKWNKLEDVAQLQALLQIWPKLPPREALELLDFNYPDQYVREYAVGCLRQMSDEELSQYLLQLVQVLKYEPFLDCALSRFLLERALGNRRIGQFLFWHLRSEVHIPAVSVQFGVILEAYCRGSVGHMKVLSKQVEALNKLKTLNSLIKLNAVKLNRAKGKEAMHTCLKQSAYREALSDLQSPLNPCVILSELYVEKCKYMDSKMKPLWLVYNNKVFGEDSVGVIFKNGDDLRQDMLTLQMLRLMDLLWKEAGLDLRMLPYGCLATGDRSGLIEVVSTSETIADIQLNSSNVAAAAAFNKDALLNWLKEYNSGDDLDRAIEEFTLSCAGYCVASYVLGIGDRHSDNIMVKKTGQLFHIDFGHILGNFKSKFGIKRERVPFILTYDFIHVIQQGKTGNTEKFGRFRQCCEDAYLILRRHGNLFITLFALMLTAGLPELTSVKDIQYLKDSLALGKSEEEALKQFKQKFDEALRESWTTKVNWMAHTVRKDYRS
T1 sequence (P27986 whole entry partner, canonical isoform): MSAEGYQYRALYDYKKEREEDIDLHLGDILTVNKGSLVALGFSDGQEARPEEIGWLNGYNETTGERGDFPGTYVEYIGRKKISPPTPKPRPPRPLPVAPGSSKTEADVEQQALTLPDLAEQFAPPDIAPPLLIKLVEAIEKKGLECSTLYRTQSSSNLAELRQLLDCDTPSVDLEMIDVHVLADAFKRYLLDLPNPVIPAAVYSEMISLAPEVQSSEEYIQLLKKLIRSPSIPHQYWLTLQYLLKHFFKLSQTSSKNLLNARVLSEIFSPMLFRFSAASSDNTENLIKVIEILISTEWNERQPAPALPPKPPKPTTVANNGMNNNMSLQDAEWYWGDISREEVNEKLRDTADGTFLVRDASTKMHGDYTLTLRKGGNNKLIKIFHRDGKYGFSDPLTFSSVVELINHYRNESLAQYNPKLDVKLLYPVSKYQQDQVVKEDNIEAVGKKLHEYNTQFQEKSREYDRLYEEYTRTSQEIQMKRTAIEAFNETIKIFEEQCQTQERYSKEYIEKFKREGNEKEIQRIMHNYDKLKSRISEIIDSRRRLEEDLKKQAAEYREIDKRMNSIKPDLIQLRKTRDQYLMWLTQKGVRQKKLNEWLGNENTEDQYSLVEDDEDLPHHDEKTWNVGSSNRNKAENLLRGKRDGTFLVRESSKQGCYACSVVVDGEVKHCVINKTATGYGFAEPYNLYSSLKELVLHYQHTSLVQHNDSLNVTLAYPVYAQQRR

Structure (SMILES)	IC50 [1] [nM]	IC50 (PI3K-beta) [nM]
Cc1c(Cc2cnn3c(O)cc(-c4ccncc4)nc23)cccc1C(F)(F)F [Example 13, 3-(2-methyl-3-(trifluoromethyl)benzyl)-5-(pyridin-4-yl)pyrazolo[1,5-a]pyrimidin-7-ol]	1000 to 5000	1.26 to 10
Cc1cccc(Cc2cnn3c(O)cc(-c4ccncc4)nc23)c1C [Example 14, 3-(2,3-dimethylbenzyl)-5-(pyridin-4-yl)pyrazolo[1,5-a]pyrimidin-7-ol]	1000 to 5000	1.26 to 10
CCc1nn2c(O)cc(C3CCOCC3)nc2c1Cc1cccc(Cl)c1Cl [Example 15, 3-(2,3-dichlorobenzyl)-2-ethyl-5-(tetrahydro-2H-pyran-4-yl)pyrazolo[1,5-a]pyrimidin-7-ol]	> 20000	1.26 to 10
Cc1nn2c(NC(N)=O)cc(N3CCOCC3)nc2c1Cc1cccc(C(F)(F)F)c1C [Example 16, 1-(2-methyl-3-(2-methyl-3-(trifluoromethyl)benzyl)-5-morpholinopyrazolo[1,5-a]pyrimidin-7-yl)urea]	> 20000	12.6 to 100
Cc1c(Cc2c(O)nn3c(O)cc(C4CCOCC4)nc23)cccc1C(F)(F)F [Example 19, 3-(2-methyl-3-(trifluoromethyl)benzyl)-5-(tetrahydro-2H-pyran-4-yl)pyrazolo[1,5-a]pyrimidine-2,7-diol]	> 20000	12.6 to 100
Nc1cc(N2CCOCC2)nc2c(Cc3cccc(Cl)c3Cl)cnn12 [Example 20, 3-(2,3-dichlorobenzyl)-5-morpholinopyrazolo[1,5-a]pyrimidin-7-amine]	< 1000	12.6 to 100
Cc1nn2c(O)cc(N3CCOCC3)nc2c1Cc1cccc2ccccc12 [Example 22, 2-methyl-5-morpholino-3-(naphthalen-1-ylmethyl)pyrazolo[1,5-a]pyrimidin-7-ol]	1000 to 5000	0.126 to 1
Cc1c(Cc2c(N)nn3c(O)cc(C4CCOCC4)nc23)cccc1C(F)(F)F [Example 25, 2-amino-3-(2-methyl-3-(trifluoromethyl)benzyl)-5-(tetrahydro-2H-pyran-4-yl)pyrazolo[1,5-a]pyrimidin-7-ol]	< 1000	1.26 to 10
Nc1nn2c(O)cc(C3CCOCC3)nc2c1Cc1cccc(Cl)c1Cl [Example 26, 2-amino-3-(2,3-dichlorobenzyl)-5-(tetrahydro-2H-pyran-4-yl)pyrazolo[1,5-a]pyrimidin-7-ol hydrochloride]	1000 to 5000	1.26 to 10
Cc1nn2c(N)cc(N3CCOCC3)nc2c1Cc1cccc2ccccc12 [Example 27, 2-methyl-5-morpholino-3-(naphthalen-1-ylmethyl)pyrazolo[1,5-a]pyrimidin-7-amine]	< 1000	12.6 to 100
Cc1nn2c(O)cc(-c3ccncc3)nc2c1Cc1cccc(Cl)c1Cl [Example 30, 3-(2,3-dichlorobenzyl)-2-methyl-5-(pyridin-4-yl)pyrazolo[1,5-a]pyrimidin-7-ol]	6000 to 10000	0.126 to 1
Oc1cc(-c2ccncc2)nc2c(Cc3cccc(Cl)c3Cl)c(C(F)(F)F)nn12 [Example 32, 3-(2,3-dichlorobenzyl)-5-(pyridin-4-yl)-2-(trifluoromethyl)pyrazolo[1,5-a]pyrimidin-7-ol]	11000 to 20000	1.26 to 10

Results, then the compound that gave them:

IC50 [1] [nM]	IC50 (PI3K-beta) [nM]	Structure (SMILES)
< 1000	12.6 to 100	Cc1nn2c(N)cc(N3CCOCC3)nc2c1Cc1cccc(C(F)(F)F)c1C [Example 17, 2-methyl-3-(2-methyl-3-(trifluoromethyl)benzyl)-5-morpholinopyrazolo[1,5-a]pyrimidin-7-amine]
> 20000	126 to 1260	Oc1nn2c(O)cc(-c3ccncc3)nc2c1Cc1ccccc1Cl [Example 21, 3-(2-chlorobenzyl)-5-(pyridin-4-yl)pyrazolo[1,5-a]pyrimidine-2,7-diol]
< 1000	0.126 to 1	Nc1nn2c(O)cc(N3CCOCC3)nc2c1Cc1cccc2ccccc12 [Example 23, 2-amino-5-morpholino-3-(naphthalen-1-ylmethyl)pyrazolo[1,5-a]pyrimidin-7-ol]
< 1000	1.26 to 10	Cc1c(Cc2c(N)nn3c(O)cc(N4CCOCC4)nc23)cccc1C(F)(F)F [Example 24, 2-amino-3-(2-methyl-3-(trifluoromethyl)benzyl)-5-morpholinopyrazolo[1,5-a]pyrimidin-7-ol]
1000 to 5000	1.26 to 10	Cc1ccccc1Cc1c(C)nn2c(O)cc(-c3ccncc3)nc12 [Example 29, 2-methyl-3-(2-methylbenzyl)-5-(pyridin-4-yl)pyrazolo[1,5-a]pyrimidin-7-ol]
> 20000	0.126 to 1	CCc1nn2c(O)cc(-c3ccncc3)nc2c1Cc1cccc(Cl)c1Cl [Example 31, 3-(2,3-dichlorobenzyl)-2-ethyl-5-(pyridin-4-yl)pyrazolo[1,5-a]pyrimidin-7-ol]
